From patent US20160007541A1, “Increasing Harvest (Yield) of Crop Plants Utilizing Thermodynamic Laws on a Whole Plant Basis to Detect Optimal Periods for Exothermic Energy Versus Endothermic Energy Needs” (Stoller Enterprises, Inc., priority 2014, published 2016)

Tested on: tomato plants
Assay: Tomato yield, Brix and taste after cobalt via drip irrigation (Table 4)
Format: in vivo
Conditions: base fertility plus cobalt @ 1 pt/acre over 5 weeks

SMILES: [Co] [cobalt]
- Taste test 14 scientific personnel (base 2): 2.8
- % Brix (sugars) (base 4.8): 5.5%
- Yield (No. of tons per acre) (base 29.6): 33.9 tons per acre
- Yield (number of tomato fruits per acre × 1,000) (base 244): 288 fruits per acre × 1,000
